Test results from patent US10561591B2, “Hair care regimen using compositions comprising moisture control materials” (The Procter & Gamble Company, priority 2015, dated 2020).

Test: Dynamic Vapor Sorption (DVS) measurement: % water reduction of treated hair versus control
Details: not given
Description: The % water reduction is calculated as follows: […]
Leave-on Treatment Formulation: […]

SMILES	% water reduction in regimen, in words
O=CC(=O)O [glyoxylic acid]	further increase % water reduction

Test: Penetration amount of moisture control material inside hair (extraction with 0.1% TFA in methanol, HPLC)
Details: 2% 2-hydroxyethyl urea versus composition without (example III and IV)
Description: Each hair tress is extracted 3 times with 0.1% TFA (Trifluoroacetic acid) in methanol and the individual extracts are analyzed separately using HPLC method.

SMILES	increase of penetration of salicylic acid inside hair by 2-hydroxyethyl urea [%]
O=C(O)c1ccccc1O [Salicylic acid]	14

Test: Expert rating of hair switches for frizz, clean feel and greasy feel (5 point scale) after high humidity
Details: 1% in ethanol/water leave-on
Description: (§1) Additional leave-on treatment compositions are prepared (Tables 1 and 2) according to the procedure described above, which are used to treat hair switches using the procedure described above (amount of 0.10 g of composition per g of hair). […] Then, ten experts are asked to rate each hair switch in terms of frizz, clean feel, and greasy feel, based on a 5 point scale, 5 being the highest and 1 being the lowest rating.
Acceptable values are: • For frizz, less than 2 (lower number corresponds to less frizz); • For no greasy feel less than 3, (lower number corresponds to less greasy feel), and • For clean feel greater than 3 (higher number corresponds to cleaner feel).
as §1, with “(Tables 6” for “(Tables 1”, “and 7)” for “and 2)”, “rating. Acceptable values are: • For frizz, less than 2 (lower number corresponds to less frizz); • For no greasy feel less than 3, (lower number corresponds to less greasy feel), and • For clean feel greater than 3 (higher number corresponds to cleaner feel).” for “rating.”

SMILES	hair switch rating (frizz, clean feel, greasy feel), in words
O=C(O)c1ccc(O)cc1O [2,4-Dihydroxybenzoic acid]	provide fizz protection with clean feel and without greasy feel negative
CCCCCCCCC(CO)CCCCCC (stereo not drawn) [2-Hexyl-1-decanol]	provide frizz protection with clean feel and without greasy feel negative
O=S(=O)(O)c1ccc(O)cc1 [4-Hydroxybenzenesulphonic acid]	provide fizz protection with clean feel and without greasy feel negative
CC(C)CCCCCCCCCCCCCCCOC(=O)CCCCCCCCCCCCCCC(C)C [Isostearyl isostearate]	provide frizz protection with clean feel and without greasy feel negative
O=C(O)c1ccccc1O [Salicylic acid]	provide fizz protection with clean feel and without greasy feel negative
O=C(OCCO)c1ccccc1O [2-Hydroxyethyl salicylate]	provide frizz protection with clean feel and without greasy feel negative
O=C(O)c1cc(Cl)ccc1O [5-Chlorosalicylic acid]	provide fizz protection with clean feel and without greasy feel negative
